In brackets after ≈: the same amount, converted by molar mass. Several values for one entry are separate records, joined by “and”; a condition that tells them apart may be missing. Equal entries are not always repeated.
Experiments:
Assay in all cases: ≥ marks a high value that may be exact or a test limit, other limits are often not marked, values filed in µg/mL are converted to µM
[1] = tested on: Salmonella typhimurium CCARM 8013
[2] = tested on: Salmonella typhimurium CCARM 8009
[3] = tested on: Staphylococcus aureus ATCC 25923
[4] = tested on: Pseudomonas aeruginosa 5018
[5] = tested on: Salmonella typhimurium KCTC 1926
[6] = tested on: Pseudomonas aeruginosa 3592
[7] = tested on: Staphylococcus aureus CCARM 3114
[8] = tested on: Staphylococcus aureus CCARM 3709
[9] = tested on: Escherichia coli CCARM 1229
[10] = tested on: Listeria monocytogenes KCTC 3710
[11] = tested on: Pseudomonas aeruginosa ATCC 27853
[12] = tested on: Escherichia coli ATCC 25922
[13] = tested on: Acinetobacter baumannii NR-13375
[14] = tested on: Pseudomonas aeruginosa ATCC 9027
[15] = tested on: Pseudomonas aeruginosa ATCC 25619
[16] = tested on: Acinetobacter baumannii NR-9667
[17] = tested on: Pseudomonas aeruginosa ATCC 35032
[18] = tested on: Pseudomonas aeruginosa ATCC 10145
[19] = tested on: Pseudomonas aeruginosa ATCC BAA-1744
[20] = tested on: Pseudomonas aeruginosa 1125
[21] = tested on: Pseudomonas aeruginosa ATCC 9721
[22] = tested on: Pseudomonas aeruginosa 1109
[23] = tested on: Acinetobacter baumannii ATCC BAA-1605
[24] = tested on: Acinetobacter baumannii ATCC BAA-747
[25] = tested on: Acinetobacter baumannii ATCC 19606
[26] = tested on: Pseudomonas aeruginosa ATCC 15442
Staphylococcus aureus = tested on: Staphylococcus aureus
[27] = tested on: Acinetobacter baumannii ATCC 15308
Streptococcus pneumoniae = tested on: Streptococcus pneumoniae
Citrobacter sp. = tested on: Citrobacter sp.
Enterobacter cloacae = tested on: Enterobacter cloacae
Klebsiella pneumoniae = tested on: Klebsiella pneumoniae
[28] = tested on: Salmonella enterica subsp. arizonae ATCC 13314
Escherichia coli SBS 363 = tested on: Escherichia coli SBS 363
Micrococcus luteus A270 = tested on: Micrococcus luteus A270
Candida albicans MDM8 = tested on: Candida albicans MDM8
Enterococcus faecium VR = tested on: Enterococcus faecium VR
[29] = tested on: Staphylococcus epidermidis KCTC 1917
Enterococcus faecalis = tested on: Enterococcus faecalis
Staphylococcus aureus MR = tested on: Staphylococcus aureus MR
[30] = tested on: Staphylococcus aureus KCTC 1621
Enterococcus faecium = tested on: Enterococcus faecium
[31] = tested on: Escherichia coli KCTC 1682
[32] = tested on: Pseudomonas aeruginosa KCTC 1637
Enterococcus faecalis VR = tested on: Enterococcus faecalis VR
[33] = tested on: Bacillus subtilis KCTC 3068
[34] = tested on: Acinetobacter baumannii ATCC 17978
[35] = tested on: Enterococcus faecalis NCTC 775
Klebsiella pneumoniae M6 = tested on: Klebsiella pneumoniae M6
[36] = tested on: Staphylococcus aureus NCTC 6571
[37] = tested on: Pseudomonas aeruginosa PAO1
[38] = tested on: Enterococcus faecalis NCTC 12201
[39] = tested on: Pseudomonas aeruginosa NCTC 13437
[40] = tested on: Staphylococcus aureus NCTC 13616
[41] = tested on: Staphylococcus aureus NCTC 13277
[42] = tested on: Acinetobacter baumannii AYE

In the case of `CC[C@H](C)[C@H](NC(=O)[C@H](Cc1c[nH]c2ccccc12)NC(=O)[C@H](CCCN=C(N)N)NC(=O)[C@@H](NC(=O)[C@@H](N)CCCN=C(N)N)[C@@H](C)CC)C(=O)N[C@@H](CC(C)C)C(=O)N[C@@H](CCCN=C(N)N)C(=O)N[C@@H](Cc1ccc(O)cc1)C(=O)N[C@@H](Cc1c[nH]c2ccccc12)C(=O)N[C@@H](CCCN=C(N)N)C(=O)N[C@@H](Cc1c[nH]c2ccccc12)C(=O)N[C@@H](CO)C(=O)O` [RIRWILRYWRWS], the MIC [1] is reported as 4 µM and 8 µM, the MIC [2] is reported as 4 µM (≈ 7.16 µg/mL) and the MIC [3] is reported as 1 µM (≈ 1.79 µg/mL). It also gave an MIC [4] of 8 µM (≈ 14.3 µg/mL), an MIC [5] of 2 µM (≈ 3.58 µg/mL) and an MIC [6] of 8 µM (≈ 14.3 µg/mL). For the same compound, the MIC [7] was 8 µM and 16 µM, the MIC [8] was 2 µM and 4 µM and the MIC [9] was 1 µM and 2 µM. It also gave an MIC [10] of 4 µM (≈ 7.16 µg/mL), an MIC [11] of 4 µM (≈ 7.16 µg/mL) and an MIC [12] of 2 µM (≈ 3.58 µg/mL).

With `CC[C@H](C)[C@H](NC(=O)[C@H](Cc1c[nH]c2ccccc12)NC(=O)[C@H](CCCCN)NC(=O)[C@H](CCCCN)NC(=O)[C@@H](NC(=O)[C@H](CCCN=C(N)N)NC(=O)[C@H](CCCN=C(N)N)NC(=O)[C@@H](NC(=O)[C@@H](N)Cc1c[nH]c2ccccc12)[C@@H](C)CC)[C@@H](C)CC)C(=O)N[C@@H](CCCN=C(N)N)C(=O)N[C@@H](CCCN=C(N)N)C(=O)N[C@H](C(=O)N[C@@H](Cc1cnc[nH]1)C(=O)N[C@@H](CCCCN)C(=O)O)C(C)C` [WIRRIKKWIRRVHK] the MIC [13] was 2 µM (≈ 3.95 µg/mL), the MIC [14] was 4 µM (≈ 7.9 µg/mL) and the MIC [15] was 8 µM (≈ 15.8 µg/mL). For the same compound, the MIC [16] was 4 µM (≈ 7.9 µg/mL), the MIC [17] was 16 µM (≈ 31.6 µg/mL) and the MIC [18] was 8 µM (≈ 15.8 µg/mL). The MIC [19] was 16 µM (≈ 31.6 µg/mL), the MIC [20] was ≥ 32 µM and the MIC [21] was 8 µM (≈ 15.8 µg/mL). It also gave an MIC [22] of 16 µM (≈ 31.6 µg/mL), an MIC [23] of 4 µM (≈ 7.9 µg/mL) and an MIC [24] of 4 µM (≈ 7.9 µg/mL). For the same compound, the MIC [25] was 2 µM (≈ 3.95 µg/mL), the MIC [11] was 8 µM (≈ 15.8 µg/mL) and the MIC [26] was 16 µM (≈ 31.6 µg/mL).

`CC[C@H](C)[C@H](NC(=O)[C@H](CCSC)NC(=O)[C@H](C)NC(=O)[C@@H]1CCCN1C(=O)[C@@H](NC(=O)[C@@H](NC(=O)[C@H](CCCCN)NC(=O)[C@@H](NC(=O)[C@H](CC(C)C)NC(=O)CNC(=O)CNC(=O)[C@H](CC(C)C)NC(=O)[C@@H](N)Cc1ccccc1)[C@@H](C)CC)[C@@H](C)CC)C(C)C)C(=O)N[C@H]1CSSC[C@@H](C(=O)O)NC(=O)[C@H](CCCCN)NC(=O)[C@H](CCCCN)NC(=O)[C@H](CCCN=C(N)N)NC(=O)[C@H](C(C)C)NC(=O)[C@H](C)NC1=O` [FLGGLIKIVPAMICAVRKKC] was tested, and the MIC [3] was 57.8 µM (≈ 125 µg/mL), the MIC (Staphylococcus aureus) was 116 µM (≈ 250 µg/mL) and the MIC [27] was ≥ 116 µM. The MIC (Streptococcus pneumoniae) was ≥ 116 µM, the MIC (Citrobacter sp.) was ≥ 116 µM and the MIC (Enterobacter cloacae) was ≥ 116 µM. The MIC [26] was ≥ 116 µM, the MIC (Klebsiella pneumoniae) was > 116 µM and the MIC [12] was 116 µM (≈ 250 µg/mL).

For `CC[C@H](C)[C@H](NC(=O)[C@H](CC(C)C)NC(=O)[C@H](CO)NC(=O)[C@H](CC(C)C)NC(=O)[C@H](CC(C)C)NC(=O)[C@@H](N)CO)C(=O)N[C@@H](CCCN=C(N)N)C(=O)N[C@@H](CC(C)C)C(=O)N[C@@H](CC(C)C)C(=O)N[C@H](C(=O)N[C@H](C(N)=O)[C@@H](C)O)[C@@H](C)CC` [SLLSLIRLLIT], the MIC [28] was ≥ 50 µM, the MIC (Escherichia coli SBS 363) was 12.5 µM (≈ 15.5 µg/mL) and the MIC (Micrococcus luteus A270) was 12.5 µM (≈ 15.5 µg/mL). The MIC [11] was 1.6 µM (≈ 1.98 µg/mL) and the MIC (Candida albicans MDM8) was 12.5 µM (≈ 15.5 µg/mL).

`CC[C@H](C)[C@H](NC(=O)[C@H](CS)NC(=O)[C@H](Cc1cnc[nH]1)NC(=O)[C@H](C)NC(=O)[C@H](C)N)C(=O)N[C@H](C(=O)N[C@@H](CC(C)C)C(=O)N[C@@H](Cc1cnc[nH]1)C(=O)N[C@@H](Cc1cnc[nH]1)C(=O)N[C@@H](CC(N)=O)C(N)=O)C(C)C` [AAHCIVLHHN] gave an MIC (Enterococcus faecium VR) of 30 µM (≈ 33.4 µg/mL), an MIC [29] of 15 µM (≈ 16.7 µg/mL) and an MIC (Enterococcus faecalis) of 30 µM (≈ 33.4 µg/mL). It also gave an MIC (Staphylococcus aureus MR) of 30 µM (≈ 33.4 µg/mL), an MIC [30] of 30 µM (≈ 33.4 µg/mL) and an MIC (Enterococcus faecium) of 30 µM (≈ 33.4 µg/mL). For the same compound, the MIC [5] was 30 µM (≈ 33.4 µg/mL), the MIC [31] was 30 µM (≈ 33.4 µg/mL) and the MIC [32] was 15 µM (≈ 16.7 µg/mL). For the same compound, the MIC (Enterococcus faecalis VR) was 30 µM (≈ 33.4 µg/mL) and the MIC [33] was 15 µM (≈ 16.7 µg/mL).

For `CC[C@H](C)[C@H](NC(=O)[C@@H]1CCCN1C(=O)[C@H](CC(C)C)NC(=O)[C@@H](N)Cc1ccccc1)C(=O)N[C@H](C(=O)NCC(=O)N[C@@H](CC(C)C)C(=O)N[C@@H](CC(C)C)C(=O)N[C@@H](CCCCN)C(=O)N[C@@H](CO)C(=O)N[C@@H](CC(C)C)C(=O)N[C@@H](CC(C)C)C(=O)N[C@@H](CCCCN)C(N)=O)C(C)C` [FLPIVGLLKSLLK], the MIC [34] was 5.55 µM and 11.1 µM, the MIC [35] was 22.2 µM and ≥ 44.4 µM and the MIC (Klebsiella pneumoniae M6) was 22.2 µM and ≥ 44.4 µM. For the same compound, the MIC [36] was 2.78 µM and 5.55 µM, the MIC [37] was 88.8 µM (≈ 128 µg/mL) and the MIC [38] was ≥ 88.8 µM. For the same compound, the MIC [39] was ≥ 88.8 µM, the MIC [40] was 11.1 µM (≈ 16 µg/mL) and the MIC [41] was 11.1 µM (≈ 16 µg/mL). It also gave an MIC [42] of 5.55 µM (≈ 7.99 µg/mL).

Reference: DBAASP
